The results in this text go back to article PMC11005823 (Frontiers in Microbiology, 2024).

Numbering of substitutions follows the chain as printed. Several values for one entry are separate records, joined by “and”; a condition that tells them apart may be missing. Equal entries are not always repeated. Where two headings read alike, the source gives them in different places.

The subject of test [1] is OKN359/pFepA Fiu^−, FepA^+, Cir-. The settings on record: summary in words.
The next test deals with T1, Fiu N554C-FM (Escherichia coli, UniProt P75780, N554C).
T1 sequence (P75780 32-760 N554C): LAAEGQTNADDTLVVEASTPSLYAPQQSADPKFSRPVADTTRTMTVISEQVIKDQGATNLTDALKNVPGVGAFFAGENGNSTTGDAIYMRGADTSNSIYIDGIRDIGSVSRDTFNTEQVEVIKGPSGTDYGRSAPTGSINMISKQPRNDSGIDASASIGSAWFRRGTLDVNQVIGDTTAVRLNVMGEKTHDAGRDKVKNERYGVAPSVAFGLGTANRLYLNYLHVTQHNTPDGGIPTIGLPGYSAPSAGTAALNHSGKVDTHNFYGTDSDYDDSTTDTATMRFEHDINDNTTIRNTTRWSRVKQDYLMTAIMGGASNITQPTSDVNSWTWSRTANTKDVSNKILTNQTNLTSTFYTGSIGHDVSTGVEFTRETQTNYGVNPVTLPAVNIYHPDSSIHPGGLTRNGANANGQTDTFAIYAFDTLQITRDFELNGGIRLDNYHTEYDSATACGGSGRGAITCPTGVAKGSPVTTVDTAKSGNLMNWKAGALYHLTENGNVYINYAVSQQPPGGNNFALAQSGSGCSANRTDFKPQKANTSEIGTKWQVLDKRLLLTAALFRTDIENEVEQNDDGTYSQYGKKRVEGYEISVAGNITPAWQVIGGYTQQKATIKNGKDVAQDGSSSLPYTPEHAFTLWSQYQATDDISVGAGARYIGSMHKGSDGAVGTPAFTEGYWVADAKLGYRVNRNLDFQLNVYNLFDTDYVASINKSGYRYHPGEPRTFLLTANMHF
Type of test: binding. The following applies: Fiu Cys mutant N554C-FM (positive control); read-out: Affinity: apparent KD.

Test [2] relates to OKN359/pFiu Fiu^+, FepA^−, Cir-. The following applies: summary in words; strains exclusively expressing Fiu.
A further test has as its target T2, AbaPirA (Acinetobacter baumannii, UniProt D0C8V9).
T2 sequence (D0C8V9 25-754): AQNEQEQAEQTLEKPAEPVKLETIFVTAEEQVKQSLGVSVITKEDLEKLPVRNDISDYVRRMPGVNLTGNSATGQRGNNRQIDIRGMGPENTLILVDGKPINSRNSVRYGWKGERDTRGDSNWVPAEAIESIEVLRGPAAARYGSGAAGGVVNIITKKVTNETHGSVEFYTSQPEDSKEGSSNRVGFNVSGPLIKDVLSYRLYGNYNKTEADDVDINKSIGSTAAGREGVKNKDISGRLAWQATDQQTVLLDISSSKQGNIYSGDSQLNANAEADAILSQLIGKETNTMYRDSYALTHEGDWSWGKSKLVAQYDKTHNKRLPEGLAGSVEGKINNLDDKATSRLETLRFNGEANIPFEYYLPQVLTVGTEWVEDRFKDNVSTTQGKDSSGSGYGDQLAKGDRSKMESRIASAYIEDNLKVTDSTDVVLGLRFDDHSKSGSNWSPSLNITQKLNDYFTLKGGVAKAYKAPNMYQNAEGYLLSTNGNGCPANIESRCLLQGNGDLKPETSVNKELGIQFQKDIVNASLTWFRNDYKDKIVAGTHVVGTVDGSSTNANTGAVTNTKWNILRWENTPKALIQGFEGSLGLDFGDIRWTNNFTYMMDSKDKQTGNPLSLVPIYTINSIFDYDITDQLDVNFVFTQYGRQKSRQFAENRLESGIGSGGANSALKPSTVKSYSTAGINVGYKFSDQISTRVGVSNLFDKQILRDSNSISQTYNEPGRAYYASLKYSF
The following applies: read-out: apparent KD; AbaPirA sensor; NB = no binding.

A further test has as its target T3, AbaPiuA (Acinetobacter baumannii, UniProt D0CAH3).
T3 sequence (D0CAH3 29-743): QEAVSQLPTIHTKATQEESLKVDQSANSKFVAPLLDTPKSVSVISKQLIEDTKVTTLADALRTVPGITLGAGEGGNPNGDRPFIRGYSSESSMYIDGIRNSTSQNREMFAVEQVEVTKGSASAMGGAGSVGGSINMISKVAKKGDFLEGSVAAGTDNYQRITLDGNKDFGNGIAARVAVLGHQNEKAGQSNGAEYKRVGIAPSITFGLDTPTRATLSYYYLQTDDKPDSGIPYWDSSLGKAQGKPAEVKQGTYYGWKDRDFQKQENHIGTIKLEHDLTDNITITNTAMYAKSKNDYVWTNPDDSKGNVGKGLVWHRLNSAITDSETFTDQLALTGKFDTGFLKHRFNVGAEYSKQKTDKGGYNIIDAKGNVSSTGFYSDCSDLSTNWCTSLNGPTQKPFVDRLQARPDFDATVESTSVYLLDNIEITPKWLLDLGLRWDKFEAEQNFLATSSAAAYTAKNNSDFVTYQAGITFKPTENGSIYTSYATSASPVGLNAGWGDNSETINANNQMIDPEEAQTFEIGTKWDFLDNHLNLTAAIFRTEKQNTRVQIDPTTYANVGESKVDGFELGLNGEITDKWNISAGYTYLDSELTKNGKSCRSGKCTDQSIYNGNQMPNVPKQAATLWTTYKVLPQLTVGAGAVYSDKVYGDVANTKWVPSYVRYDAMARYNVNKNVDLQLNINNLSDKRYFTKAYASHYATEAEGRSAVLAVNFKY
The following applies: read-out: apparent KD; AbaPiuA sensor; NB = no binding.

In the next test the target is T4, EcoFiu (Fiu_A694C-FM) (Escherichia coli, UniProt P75780, A694C).
T4 sequence (P75780 32-760 A694C): T1 sequence (P75780 32-760 N554C) with C523N, A663C
The experiment in a line: biochemical. Type of test: binding.

Test [3] concerns OKN359/pCir Fiu^−, FepA^−, Cir^+. The following applies: summary in words.
The target of the next test is EcoFepA. Type of test: binding, Escherichia coli. The following applies: read-out: apparent KD.
Another test deals with EcoCir (Escherichia coli, UniProt P17315). The test is classed as binding.
Another test concerns the target T5, AbaBauA (Acinetobacter baumannii, UniProt Q76HJ9).
T5 sequence (Q76HJ9 23-725): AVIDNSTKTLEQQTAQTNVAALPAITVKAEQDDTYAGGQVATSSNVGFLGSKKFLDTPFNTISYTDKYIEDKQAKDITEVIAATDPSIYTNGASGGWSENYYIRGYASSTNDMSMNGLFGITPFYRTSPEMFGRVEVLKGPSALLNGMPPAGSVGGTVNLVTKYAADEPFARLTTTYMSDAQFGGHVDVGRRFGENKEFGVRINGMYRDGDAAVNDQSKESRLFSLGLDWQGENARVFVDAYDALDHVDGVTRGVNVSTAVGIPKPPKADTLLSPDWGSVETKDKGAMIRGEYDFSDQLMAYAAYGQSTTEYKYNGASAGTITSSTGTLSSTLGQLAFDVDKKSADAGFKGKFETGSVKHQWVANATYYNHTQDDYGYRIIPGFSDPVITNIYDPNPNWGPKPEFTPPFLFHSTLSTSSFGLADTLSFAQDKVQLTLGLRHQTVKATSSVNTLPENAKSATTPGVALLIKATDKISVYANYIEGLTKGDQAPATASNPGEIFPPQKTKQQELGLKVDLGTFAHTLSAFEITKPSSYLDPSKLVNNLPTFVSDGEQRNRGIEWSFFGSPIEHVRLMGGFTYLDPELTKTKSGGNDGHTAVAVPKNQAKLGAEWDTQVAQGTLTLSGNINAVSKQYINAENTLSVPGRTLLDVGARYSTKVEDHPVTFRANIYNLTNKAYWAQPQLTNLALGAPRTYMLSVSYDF
The following applies: AbaBauA sensor; NB = no binding; read-out: apparent KD.

[4] abbreviates: apparent KD, EcoFiu sensor (Fiu_A694C-FM; FeDHBA with Fiu_N554C-FM), NB = no binding.

Chain of EcoCir (P17315 26-663): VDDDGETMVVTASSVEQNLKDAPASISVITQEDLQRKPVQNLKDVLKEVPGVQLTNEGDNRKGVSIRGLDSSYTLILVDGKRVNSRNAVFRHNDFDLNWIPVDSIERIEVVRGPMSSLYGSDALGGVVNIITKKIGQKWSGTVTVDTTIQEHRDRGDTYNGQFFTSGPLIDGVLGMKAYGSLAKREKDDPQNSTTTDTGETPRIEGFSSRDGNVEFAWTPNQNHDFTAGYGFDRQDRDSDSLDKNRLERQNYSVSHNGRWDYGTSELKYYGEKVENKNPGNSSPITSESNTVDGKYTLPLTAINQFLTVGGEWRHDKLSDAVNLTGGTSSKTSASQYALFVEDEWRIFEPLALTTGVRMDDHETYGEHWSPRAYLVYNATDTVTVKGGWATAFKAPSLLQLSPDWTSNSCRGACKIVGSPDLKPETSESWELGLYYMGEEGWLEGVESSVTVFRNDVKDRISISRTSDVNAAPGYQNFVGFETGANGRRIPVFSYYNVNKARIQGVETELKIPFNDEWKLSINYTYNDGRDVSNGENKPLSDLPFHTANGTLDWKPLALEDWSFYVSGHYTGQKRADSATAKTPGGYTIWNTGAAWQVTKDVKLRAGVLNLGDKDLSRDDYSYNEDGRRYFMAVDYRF

For `O=C(O)c1cccc(O)c1O.O=C(O)c1cccc(O)c1O.O=C(O)c1cccc(O)c1O.[Fe+3]` [FeDHBA], the “transport by FepA” value in [1] is given as “transported”. For the same compound, the Kd stood at 700 nM on Fiu N554C-FM, 9400 ± 900 nM on AbaPirA, 15000 ± 3000 nM at AbaPiuA and 700 ± 100 nM at EcoFiu (Fiu_A694C-FM) (setting [4]). Further, in test [2], the “transport by Fiu” value is “did not utilize”. Moreover, the “fluorescence quenching at site A694C-FM” value on EcoFiu (Fiu_A694C-FM) (Fiu_A694C-FM) was “did not observe significant quenching”.
In the case of `O=C(N[C@@H](CO)C(=O)O)c1cccc(O)c1O.O=C(N[C@@H](CO)C(=O)O)c1cccc(O)c1O.O=C(N[C@@H](CO)C(=O)O)c1cccc(O)c1O.[Fe+3]` [FeDHBS], the “transport by Cir” value in [3] is given as “weakly”. Moreover, the Kd is 1600 ± 300 nM on EcoFepA; 161000 ± 40000 nM at AbaPirA; 7200 ± 900 nM at EcoCir (read-out: apparent KD, EcoCir sensor, NB = no binding); 100 nM and ~100 nM on EcoFiu (Fiu_A694C-FM) (setting [4]); 90 ± 0.2 nM on EcoFiu (Fiu_A694C-FM) (apparent KD, EcoFiu sensor, value marked ^1). In addition, the “transport by Fiu” value in [2] is recorded as “did not utilize”.
On to `O=C(N[C@@H](CO)C(=O)OC[C@H](NC(=O)c1cccc(O)c1[O-])C(=O)O)c1cccc([O-])c1[O-].[Fe+3]` [FeEnt*, Fe(DHBS)2], for which, on EcoFiu (Fiu_A694C-FM) (setting [4]), the Kd amounted to 740 nM.
As for `CC(C)(O/N=C(\C(=O)N[C@@H]1C(=O)N2C(C(=O)O)=C(C[N+]3(CCNC(=O)c4ccc(O)c(O)c4Cl)CCCC3)CS[C@H]12)c1csc(N)n1)C(=O)O.[Fe+3]` [FeFDC], the Kd at AbaPirA was found to be 6200 ± 2300 nM; on EcoCir (Cir), 60 nM; on EcoCir (read-out: apparent KD, EcoCir sensor, value marked ^1), 63 ± 6 nM; on EcoFiu (Fiu_A694C-FM) (setting [4]) it was 500 nM; at EcoFiu (Fiu_A694C-FM) (read-out: apparent KD, EcoFiu sensor (Fiu_A694C-FM; FeDHBA with Fiu_N554C-FM), NB = no binding), 400 ± 500 nM.
On to `CC(C)(O/N=C(\C(=O)N[C@@H]1C(=O)N2C(C(=O)[O-])=C(C[N+]3(CCNC(=O)c4ccc([O-])c([O-])c4Cl)CCCC3)CS[C@H]12)c1csc(N)n1)C(=O)O.[Fe+3]` [FeFDC], for which the “susceptibility of cells expressing only FepA” value in test [1] is listed as “not susceptible”.
With ferric acinetobactin [FeAgn], at AbaBauA, the Kd was 2100 ± 400 nM.
